Like-named read-outs stand apart in the source and are kept apart here.
Key:
[1] = test system: CT26 tumors; experiment: CT26 syngeneic colon tumor model, combination with avelumab; assay type: in vivo, Balb/c mice; details: for % TGI (D15) / % TGI (D17) / % TGI (D20): Compound 1 200 mg/kg BID, Avelumab 10 mg/kg
From the text: FIGS. 5A-5E show combinatorial anti-tumor effects of an IDO1 inhibitor and an anti-PD-L1 (avelumab) in the sc CT26 syngeneic mouse colon tumor model in Balb/c mice. […] FIGS. 5B-5E show the individual tumor growth curves.
Avelumab is a fully human anti-PD-L1 IgG1 monoclonal antibody, and thus, is not optimized for mouse.

[2] = biological target: T1, IDO1 (Homo sapiens (Human), UniProt P14902); experiment: IDO1 enzymatic activity by mass spectrometry assay; assay type: biochemical; details: human enzyme; varied tryptophan and inhibitor concentrations
T1 sequence (P14902 whole entry): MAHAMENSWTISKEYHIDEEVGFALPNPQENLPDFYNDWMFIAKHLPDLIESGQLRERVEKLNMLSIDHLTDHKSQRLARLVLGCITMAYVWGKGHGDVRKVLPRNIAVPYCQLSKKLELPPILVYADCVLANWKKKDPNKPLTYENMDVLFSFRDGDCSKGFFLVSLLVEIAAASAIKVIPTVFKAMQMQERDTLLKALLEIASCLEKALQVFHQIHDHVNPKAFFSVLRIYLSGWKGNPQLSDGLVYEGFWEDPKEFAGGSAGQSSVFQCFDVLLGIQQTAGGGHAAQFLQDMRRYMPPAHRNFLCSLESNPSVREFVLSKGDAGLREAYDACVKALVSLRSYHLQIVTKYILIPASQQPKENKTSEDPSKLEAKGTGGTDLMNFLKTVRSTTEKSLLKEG
Description: (§1) The full length complementary deoxyribonucleic acid (cDNA) for human IDO1 was cloned into a pFastbac-1 based vector and the full length cDNA for mouse and dog was cloned into a pET24a based vector. […] Human IDO1 was expressed in insect cells and purified using Ni affinity column. The mouse and dog IDO1 were expressed in Escherichia coli BL21 (DE3) and purified using a Ni affinity column. To obtain non-tagged, pure, and hemin loaded IDO1, TEV protease treated and tag removed protein was incubated with 10× molar ratio of hemin (dissolved in 25 mM NaOH) to protein at 4° C. overnight followed by size exclusion chromatography (SEC) for human IDO1 and anion exchange and SEC for mouse and dog IDO1.
The inhibition of human, dog and mouse IDO1 was measured by quantitating tryptophan and the generation of kynurenine by MS. […] The HCl stops the enzyme reactions and also converts the N-formyl kynurenine to kynurenine. […] Detection of tryptophan and kynurenine was accomplished following injection of assay reaction (injection loop volume is 10 μL) onto an Agilent Graphite Type D cartridge in 0.01% trifluoroacetic acid (TFA) plus 0.09% formic acid and eluted using 80% acetonitrile, 0.09% formic acid and 0.01% TFA. […]

[3] = biological target: dog IDO1 (Canis lupus familiaris, UniProt A0A8I3N1Y1); experiment: IDO1 enzymatic activity by mass spectrometry assay; assay type: biochemical; details: dog enzyme; varied tryptophan and inhibitor concentrations
dog IDO1, sequence (A0A8I3N1Y1 1-402): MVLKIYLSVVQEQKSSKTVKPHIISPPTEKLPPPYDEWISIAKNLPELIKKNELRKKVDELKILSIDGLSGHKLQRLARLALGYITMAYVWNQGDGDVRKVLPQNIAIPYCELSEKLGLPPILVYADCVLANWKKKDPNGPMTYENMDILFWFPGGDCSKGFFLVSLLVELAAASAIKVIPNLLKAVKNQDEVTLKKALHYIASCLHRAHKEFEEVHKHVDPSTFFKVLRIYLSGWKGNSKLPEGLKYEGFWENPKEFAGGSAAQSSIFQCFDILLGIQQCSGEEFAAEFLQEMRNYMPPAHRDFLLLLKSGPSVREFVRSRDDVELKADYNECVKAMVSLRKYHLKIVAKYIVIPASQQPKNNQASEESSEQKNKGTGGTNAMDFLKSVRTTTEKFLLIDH
Description: as §1
(§2) The inhibition of human, dog and mouse IDO1 was measured by quantitating tryptophan and the generation of kynurenine by MS. IDO1 enzyme (1 nM) was incubated with various concentrations of the inhibitor ([…] to 1 nM), in duplicate, at room temperature in […] buffer (Mg2+, Ca2+−PBS, 20 mM ascorbic acid, 10 mM methylene blue, 800 nM catalase, […]). […] The HCl stops the enzyme reactions and also converts the N-formyl kynurenine to kynurenine. […] Detection of tryptophan and kynurenine was accomplished following injection of assay reaction (injection loop volume is 10 μL) onto an Agilent Graphite Type D cartridge in 0.01% trifluoroacetic acid (TFA) plus 0.09% formic acid and eluted using 80% acetonitrile, 0.09% formic acid and 0.01% TFA. The finalized RapidFire settings were as follows: aspiration time: 600 ms or until the loop is full per the sip sensor, load time: 5000 ms, elution time: 5000 ms, and re-equilibration time: 500 ms at a flow rate of 1.5 mL/min.

[4] = biological target: mouse IDO1 (Mus musculus (Mouse), UniProt P28776); experiment: IDO1 enzymatic activity by mass spectrometry assay; assay type: biochemical; details: MS assay; geometric mean (95% confidence interval); read-out: Enzyme Activity IC50 mouse IDO1
mouse IDO1, sequence (P28776 whole entry): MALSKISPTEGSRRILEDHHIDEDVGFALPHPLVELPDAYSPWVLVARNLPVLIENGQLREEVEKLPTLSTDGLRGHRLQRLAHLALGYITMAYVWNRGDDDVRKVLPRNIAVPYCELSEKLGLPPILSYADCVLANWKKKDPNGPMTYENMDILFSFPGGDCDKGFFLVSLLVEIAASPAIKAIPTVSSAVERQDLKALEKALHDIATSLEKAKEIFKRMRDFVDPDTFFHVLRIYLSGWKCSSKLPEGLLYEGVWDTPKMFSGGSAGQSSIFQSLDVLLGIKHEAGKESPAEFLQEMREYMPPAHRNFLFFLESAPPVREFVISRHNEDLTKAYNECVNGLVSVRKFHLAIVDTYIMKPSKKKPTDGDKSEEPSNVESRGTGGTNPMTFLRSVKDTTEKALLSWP
Description: as §1, §2

[5] = biological target: T2, TDO2 (Homo sapiens (Human), UniProt P48775); experiment: Human TDO2 enzymatic assay; assay type: biochemical
T2 sequence (P48775 whole entry): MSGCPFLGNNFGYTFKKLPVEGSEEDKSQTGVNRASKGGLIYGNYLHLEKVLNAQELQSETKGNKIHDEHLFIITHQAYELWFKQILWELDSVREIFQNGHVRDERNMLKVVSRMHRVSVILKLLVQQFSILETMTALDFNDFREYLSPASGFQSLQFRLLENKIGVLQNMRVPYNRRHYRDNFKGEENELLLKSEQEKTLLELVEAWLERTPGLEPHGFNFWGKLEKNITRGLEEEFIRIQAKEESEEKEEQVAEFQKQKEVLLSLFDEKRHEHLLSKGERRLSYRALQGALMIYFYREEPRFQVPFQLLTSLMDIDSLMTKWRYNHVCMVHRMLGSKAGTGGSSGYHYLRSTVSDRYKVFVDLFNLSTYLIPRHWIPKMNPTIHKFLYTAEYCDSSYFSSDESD
Description: The protocol was adapted from Dolusic et al, 2011. Briefly, the reaction mixture ([…]) contained TRIS buffer (50 mM, pH 7.5), methylene blue (0.125 mM), ascorbic acid (0.25 M), catalase (40 units/mL) and human recombinant TDO2 enzyme (prepared as described in Dolusic et al, 2011; 0.9 mg) with increasing concentrations of compounds (1.0 nM to […]). The reaction was run with single replicate. The reaction was initiated by the addition of the substrate L-tryptophan (1 mM).

[6] = biological target: mouse TDO2 (Mus musculus (Mouse), UniProt P48776); experiment: TDO2 activity assay in P815 mouseTDO2 clone 12 cells; assay type: cell-based
mouse TDO2, sequence (P48776 whole entry): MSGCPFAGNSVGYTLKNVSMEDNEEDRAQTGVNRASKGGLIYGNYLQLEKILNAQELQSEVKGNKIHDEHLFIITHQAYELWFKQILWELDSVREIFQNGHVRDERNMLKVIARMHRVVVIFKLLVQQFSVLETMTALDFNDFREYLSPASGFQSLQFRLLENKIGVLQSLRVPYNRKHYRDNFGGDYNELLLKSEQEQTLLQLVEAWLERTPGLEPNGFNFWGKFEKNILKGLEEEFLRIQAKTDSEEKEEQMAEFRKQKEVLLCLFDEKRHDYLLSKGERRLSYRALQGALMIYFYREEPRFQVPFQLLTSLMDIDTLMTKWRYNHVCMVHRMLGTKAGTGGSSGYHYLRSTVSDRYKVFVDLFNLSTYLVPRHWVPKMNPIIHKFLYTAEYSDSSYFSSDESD
Description: P815 mTDO2 c112 cells were generated as described in Pilotte et al, Proc Natl Acad Sci, 109(7): 2497-2502 (2012). They were seeded in 96-well plates (50,000 cells/well), treated with increasing concentrations of compounds and incubated for 16-18 h. Kynurenine concentrations were determined as described above. The reaction was run with single replicate.

[7] = test system: IDO1-expressing SKOV3 cells co-cultured with human PBMC; experiment: T cell - SKOV3 co-culture assay with human serum (II.9); assay type: cell-based; details: SK-OV-3, read-out: T-cell proliferation in SKOV3 co-culture system (50% serum) IDO1 IC50 ± SD (n)
Description: Three different concentrations of human serum (10%, 25% or 50%) were used to mimic the consequences of protein binding in human. […] T cell proliferation was measured by incorporation of ^3H-thymidine after 48 h of co-culture. IC50 of T cell proliferation, tryptophan (Trp) decrease and kynurenine (Kyn) increase were determined. FIG. 7D illustrates Trp to Kyn conversion in 10% HS. […] FIG. 7F illustrates Trp to Kyn conversion in 50% HS. Tryptophan and kynurenine concentrations in supernatant were assessed using LC-MS/MS after 24 h of co-culture. […]
Human peripheral blood mononuclear cells were isolated from buffy coats, purified by density gradient centrifugation on Lymphoprep™ (StemCell), stimulated with CD3/CD28 beads (Invitrogen) and hIL-2 (Novartis) in IMDM with 10%, 25% or 50% of HS, for 15 min and then added to the SKOV3 plates. […] After an incubation of 24 h, the tryptophan and kynurenine concentrations in conditioned medium were assessed using LC-MS/MS. ^3H-thymidine was added to the co-cultures for another 24 h incubation period. Thymidine incorporation was measured using a TopCount counter (Perkin Elmer). Data were fitted and IC50 determined by using the Prism™ software (GraphPad software Inc.).

[8] = biological target: T2, TDO2; experiment: TDO2 activity assay in A172 and THP-1 cells; assay type: cell-based; details: for A172 and THP-1 cells TDO2 inhibition: @50 μM; for inhibitory activity in any of the human or mouse TDO2 assays: human biochemical and cellular, murine cellular, concentrations of up to 50 μM
Description: A172 cells were seeded in 96-well plates (12500 cells/well), treated with increasing concentrations of compounds and incubated for 16-18 h at 37° C., 5% CO2. Then TCA was added to the supernatant to stop the reaction. […] Kynurenine concentrations were determined by measuring absorbance at 480 nm. The reaction was run with single replicate.
THP-1 cells were stimulated with 2 ng/ml PMA for 24 h, then seeded in 96-well plates (100,000 cells/well), treated with 2 ng/ml PMA and increasing concentrations of compounds, and incubated for 24 h. Kynurenine concentrations were determined as described above. The reaction was run with single replicate.

[9] = biological target: T1, IDO1; experiment: Human whole blood assay (+ IFNγ/LPS); assay type: cell-based; details: read-out: unbound IC90, human whole blood
Description: Human whole blood was collected in sodium heparin and gently mixed. Then 25 mg/mL LPS (Sigma) and 100 ng/mL. IFNg (R&D) was added and transferred immediately to a 96-well U bottom plate, 200 mL per well. […] The final DMSO concentration was 0.5%. Following overnight incubation at 37° C., a 30 mL aliquot was precipitated with 270 mL acetonitrile/HPLC water (70:30), vortexed vigorously, and centrifuged at 3220×g for 15 minutes at 10° C. An aliquot of the supernatant organic solution was diluted in 0.1% Formic acid and spiked with stable labeled isotopes of kynurenine and tryptophan as internal standards prior to analysis. Kynurenine inhibition was determined by dividing the drug treated internal standard adjusted kynurenine counts by the positive control internal standard adjusted value. The no drug treated sample containing DMSO was used as the positive control. […] The IC50 and IC90 calculations were conducted in GraphPad Prism version 6.03.
In order to determine compound potency in a human cellular system, human whole blood was collected from 9 subjects. […] The unbound inhibitor IC50 and IC90 values were computed by applying a conversion for the unbound fraction value in whole blood, 0.419.

[10] = test system: PancO2 pancreas cancer cells; experiment: PancO2 syngeneic model survival, combination with anti-CTLA4 antibody; assay type: in vivo, C57/Bl6 mice; details: dead when tumor size reached 400 mm^3, anti-CTLA4 200 μg i.p., Compound 2 100 mg/kg BID
Description: In vivo efficacy studies of IDO1 inhibitor were performed on PancO2 syngeneic tumor model of C57/Bl6 mice implanted sub-cutaneously essentially as described in Example II.5. Five million PancO2 pancreas cancer cells were implanted sub-cutaneously to 7 weeks old C57/Bl6 mice (day 0). […] Anti-CTLA4 (Clone 9 h10, 200 μg/mouse, i.p. in PBS) was administered at day 11, 14 and 17. […] Treatment was administered daily until the end of the study. Tumor volume was measured weekly using a caliper device and calculated with the following formula: Tumor volume=0.5×(length×width^2). Mice were considered as dead when tumor size reached 400 mm^3.

[11] = test system: 4T1 breast cancer cells; experiment: In vivo efficacy in 4T1 breast cancer syngeneic model; design: species or system Balb/c mice; details: 100 mg/kg BID oral
Description: In vivo efficacy studies were performed on 4T1 syngeneic tumor model of Balb/c mice implanted orthotopically in the mammary gland. One hundred thousand 4T1 breast cancer cells (ATCC® CRL-2539™)] were implanted orthotopically within the mammary gland of 7 weeks old Balb/c mice (day 0). Animals were randomized based on tumor size when tumor average reached 60 mm^3 (between day 7 and 11) into different treatment cohorts. The test compound was administered orally twice per day (approximately at 9 am and […]) starting the day of randomization. The test compounds were suspended into Methocel™ cellulose ether vehicle and sonicated before oral administration to animals using gavage needles. Treatment was administered daily until the end of the study. All experimental animals were monitored for body weight changes twice weekly. Tumor volume was measured twice a week by a caliper device and calculated with the following formula: Tumor volume=0.5×(length×width^2). Studies were terminated before tumor volumes reached […]. TGI (% tumor growth inhibition) was determined as […]

[12] = test system: PancO2 pancreas cancer cells; experiment: In vivo efficacy in PancO2 pancreatic cancer syngeneic model; design: species or system C57/Bl6 mice; details: 200 mg/kg BID oral
Description: In vivo efficacy studies were performed on PancO2 syngeneic tumor model of C57/Bl6 mice implanted sub-cutaneously. Five millions PancO2 pancreas cancer cells were implanted sub-cutaneously to 7 weeks old C57/Bl6 mice (day 0). Animals were randomized based on tumor size when tumor average reached 60 mm^3 (between day 10 and 12) into different treatment cohorts. The Compound was administered orally twice per day (approximately at 9 am and 5 pm) starting the day of randomization. The test compound shown below in the table was suspended into Methocel® vehicle and sonicated before oral administration to animals using gavage needles. Treatment was administered daily until the end of the study. All experimental animals were monitored for body weight changes weekly. Tumor volume was measured weekly using a caliper device and calculated with the following formula: Tumor volume=0.5×(length×width^2). Studies were terminated before tumor volumes reached […]. TGI (% tumor growth inhibition) was determined as
Treatment was administered daily until the end of the study. Tumor volume was measured weekly using a caliper device and calculated with the following formula: Tumor volume=0.5×(length×width^2). Mice were considered as dead when tumor size reached 400 mm^3. […] SEM refers to standard error of measurement.

[13] = test system: B16-F10 cells; experiment: B16-F10 melanoma model, combination with anti-PD-L1 and anti-4-1BB; assay type: in vivo, C57BL/6J mice; details: PF-06840003 600 mg/kg BID, anti-4-1BB 1 mg/kg, anti-PD-L1 10 mg/kg d9, 12, 15, 18
Description: B16-F10 cells were obtained from the ATCC and grown following instructions on ATCC's website. 2×10^5 cells were implanted in […] PBS sc in the right flank of female C57BL/6J (Jackson labs) mice. Mice (n=20) were randomized into treatment groups and treatment initiated on day 9 after implant at a mean tumor size of 60 mm3. Antibody treatments were given as i.p. injection on day 9, 12, 15 and 18. anti-PD-L1 antibody (clone 10F.9G2; rat IgG2b) was purchased from BioxCell. anti-4-1BB antibody (MAB9371; rat IgG1—murinized) was purchased from R&D systems. […] All animal experimentation was approved in advance by and executed following Pfizer's IACUC.

[14] = test system: panel of receptors, ion channels, transporters and enzymes (64 targets in total); experiment: Cerep Wide Ligand Profile Screen; details: initial concentration of 200 μM
Description: Three hits were noted (defined by a response greater that 50% of a maximal response) and follow up curves were performed by Cerep.

[15] = Passive permeability in RRCK cells; assay type: in vitro ADME, canine; details: dog, MDCK, read-out: intrinsic permeability, apical to basolateral (A to B)
Description: In vitro Absorption: passive permeability was evaluated in Ralph-Russ canine kidney (RRCK) cells; high intrinsic permeability with an apical to basolateral (A to B) value of 25.5×10^−6 cm/sec. CNS Penetration: CNS distribution was investigated in male rats.

Row | Molecule | % TGI (D15) [1] [%] | % TGI (D17) [1] [%] | % TGI (D20) [1] [%] | mechanism of inhibition, preferred model fit [2] | mechanism of inhibition, preferred model fit [3] | IC50 [4] [µM] | IC50 [5] [µM] | IC50 [6] [µM] | A172 and THP-1 cells TDO2 inhibition [8] | inhibitory activity in any of the human or mouse TDO2 assays [8] | further results
1 | Avelumab: fully human anti-PD-L1 IgG1 monoclonal antibody | 54 | 59 | 51 | – | – | – | – | – | – | – | tumor growth inhibition (TGI), summary [1]: about 50%
2 | O=C1C[C@H](c2c[nH]c3ccc(F)cc23)C(=O)N1 [Compound 2, (−)-(R)-3-(5-fluoro-1H-indol-3-yl)pyrrolidine-2,5-dione] | – | – | – | uncompetitive inhibition | noncompetitive inhibition | 0.73 | > 50 | > 50 | no inhibition | did not display any significant inhibitory activity | IC50 [7]: 0.08 ± 0.05 µM; IC90 ([9]; conversion with unbound fraction in whole blood 0.419): 5.69 µM; % Survival at Day 55 [10]: 0%
3 | O=C1CC(c2c[nH]c3ccc(F)cc23)C(=O)N1 (racemic) [Compound 1, 3-(5-fluoro-1H-indol-3-yl)pyrrolidine-2,5-dione] | 38 | 41 | 34 | uncompetitive inhibition | noncompetitive inhibition | 1.5 | > 50 | > 50 | no inhibition | did not display any significant inhibitory activity | IC90 [9]: 10.7 µM; Mean tumor volume on day 25 [11]: 443.7 mm^3; TGI (Tumor growth inhibition) ([11]; day 25): 43.4%; Mean tumor volume on day 42 [12]: 457.0 mm^3; TGI (Tumor growth inhibition) ([12]; day 42): 26.2%; % TGI (D17) [13]: 32%; % TGI (D20) [13]: 49%; hits (response greater than 50% of a maximal response) in off target panel [14]: Three; Papp A→B [15]: 25.5 ×10⁻⁶ cm/s

Reference: patent US10945994B2, “Combinations comprising a pyrrolidine-2,5-dione IDO1 inhibitor and an anti-body” (Pfizer Inc., priority 2015, dated 2021)
